The source of these data is ChEMBL document CHEMBL5325401, “Computer-aided identification, synthesis, and biological evaluation of DNA polymerase η inhibitors for the treatment of cancer” (Eur J Med Chem, 2023).

Molecules are shown by their SMILES. Converted amounts (≈) assume the structure as drawn.

In data set [1] the target is T1, DNA polymerase eta (Homo sapiens, UniProt Q9Y253).
T1 sequence (Q9Y253 whole entry): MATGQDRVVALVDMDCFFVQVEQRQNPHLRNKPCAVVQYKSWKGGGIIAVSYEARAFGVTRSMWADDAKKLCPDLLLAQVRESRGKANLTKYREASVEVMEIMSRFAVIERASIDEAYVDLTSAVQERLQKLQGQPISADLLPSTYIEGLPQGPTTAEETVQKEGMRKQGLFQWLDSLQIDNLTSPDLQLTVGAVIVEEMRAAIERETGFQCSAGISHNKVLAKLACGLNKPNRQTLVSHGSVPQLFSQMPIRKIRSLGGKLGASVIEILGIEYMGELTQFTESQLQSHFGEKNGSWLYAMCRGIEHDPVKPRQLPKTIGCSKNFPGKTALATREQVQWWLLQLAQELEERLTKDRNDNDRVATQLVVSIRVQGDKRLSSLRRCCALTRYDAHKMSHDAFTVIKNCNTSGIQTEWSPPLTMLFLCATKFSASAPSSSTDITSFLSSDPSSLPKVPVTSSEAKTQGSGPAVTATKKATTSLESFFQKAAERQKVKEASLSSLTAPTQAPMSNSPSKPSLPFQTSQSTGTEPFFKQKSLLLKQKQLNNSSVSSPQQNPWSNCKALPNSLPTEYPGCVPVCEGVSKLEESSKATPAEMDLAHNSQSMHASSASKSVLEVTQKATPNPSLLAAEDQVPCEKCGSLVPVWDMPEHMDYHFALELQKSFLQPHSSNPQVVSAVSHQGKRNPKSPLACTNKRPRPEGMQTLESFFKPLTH
Put plainly: Inhibition of C-terminal 6xHis-tagged human DNA polymerase eta (1 to 511 residues) expressed in Escherichia coli BL21 DE3 using 5'-IRD700-GCAGGTCGACTCCAAAG-3' primer/ 5'-TCGGTACCGGGTTAGCCTTTGGAGTCGACCTGC-3' template as DNA substrate incubated for 60 mins in presence of Mg2+ by bromophenol blue staining based assay.

Data set [2] is described as follows: Metabolic stability in mouse plasma assessed as half life at 2 uM incubated upto 120 mins by UPLC/MS analysis. The format is ADME, cell-free.
Data set [3] can be described thus: Kinetic solubility of compound in neutral buffer at pH 7.4 at 250 uM measured after 24 hrs by UPLC/MS analysis. In kind it is physicochemical. The note with it: read-out: Kinetic_solubility.
A short description of data set [4]: Metabolic stability in mouse liver microsome assessed as half life at 4.6 uM incubated upto 60 mins by LC/MS-MS analysis. In kind it is ADME. As to conditions: liver microsomes. (Liver microsomes are vesicles of endoplasmic reticulum, rich in cytochrome P450 enzymes.)
Data set [5] concerns the target T1, DNA polymerase eta. Put plainly: Inhibition of human DNA polymerase eta (1 to 437 residues) using 5'-TTT TTT TTG C-TAMRA-3' reporter/5'-(FAM-TTT)-GGGGGAAGGATTC-3' primer/5'-TCACGGAATCCTTCCCCC-3' template as DNA substrate preincubated for 5 to 10 mins followed by DNA substrate addition measured immediately in presence of dTTP/MgCl2 by fluorescence based assay.

A short description of data set [6]: Inhibition of DNA polymerase (unknown origin). Further details: species or system Homo sapiens.
Data set [7] concerns the target T2, DNA polymerase eta (Homo sapiens) (UniProt Q9Y253).
T2 sequence (whole entry): T1 sequence (Q9Y253 whole entry)
Put plainly: Inhibition of C-terminal 6xHis-tagged human DNA polymerase eta (1 to 511 residues) expressed in Escherichia coli BL21 DE3 using 5'-IRD700-GCAGGTCGACTCCAAAG-3' primer/ 5'-TCGGTACCGGGTTAGCCTTTGGAGTCGACCTGC-3' template as DNA substrate at 100 uM incubated for 60 mins in presence of Mg2+ by bromophenol blue staining based assay relative to control.

In data set [8] the target is T2, DNA polymerase eta (Homo sapiens). Description: Inhibition of C-terminal 6xHis-tagged human DNA polymerase eta (1 to 511 residues) expressed in Escherichia coli BL21 DE3 using 5'-IRD700-GCAGGTCGACTCCAAAG-3' primer/ 5'-TCGGTACCGGGTTAGCCTTTGGAGTCGACCTGC-3' template as DNA substrate at 1 uM incubated for 60 mins in presence of Mg2+ by bromophenol blue staining based assay relative to control.

Data set [9] concerns the target T1, DNA polymerase eta. Put plainly: Inhibition of 6xHis-tagged human DNA polymerase eta (1 to 437 residues) expressed in Escherichia coli BL21 DE3 assessed as displacement of reporter strand using 5'-TTT TTT TTG C-TAMRA-3' reporter/5'-TCA CCC TCG TAC GAC TCT T-3' primer/5'-BHQ2-GCAAAAAAAAAAGAGTCGTACGAGGGTGA-3' template of 1:1.5:1.5 as DNA substrate preincubated for 5 to 10 mins followed by substrate addition measured immediately in presence of dTTP/MgCl2 by fluorescence based assay.

As usually defined, the IC50 is the concentration that gives 50% inhibition. As for `COc1c(-c2ccc(O)cc2)oc2cc(O)cc(O)c2c1=O` [ISOKAEMPFERIDE], the IC50 on DNA polymerase eta [1] came to 16.1 µM.
Still for that read-out and setting: the result for `O=c1c(O)c(-c2ccc(O)cc2)oc2cc(O)cc(O)c12` [KAEMPFEROL] reads 12.7 µM; that for `Cc1c(-c2ccc(O)c(O)c2)oc2cc(O)cc(O)c2c1=O`, 84.6 µM.
On the same count and under the same terms, with `COc1cc(O)c2c(=O)cc(-c3ccc4c(c3)OC(F)(F)O4)oc2c1` the figure was greater than 100 µM.
As a reminder, the half-life is the time in which the quantity being followed falls by half. On to `COc1cc(O)cc2oc(-c3ccc(O)c(O)c3)cc(=O)c12`, for which the half-life at 2 µM in [2] was greater than 2 h. Besides, the solubility kinetic at 24 h, 250 µM in data set [3] is 87 µM (≈ 26.1 µg/mL). The half-life at 4.6 µM in data set [4] is greater than 1 h. On DNA polymerase eta [1], the IC50 came out at 10.2 µM.
For `CCCc1c(-c2ccc(O)c(O)c2)oc2cc(O)cc(O)c2c1=O`, the IC50 on DNA polymerase eta [1] came to 87.1 µM.
Still for that read-out and setting: the result for `COc1ccc(-c2cc(=O)c3c(OC)c(OC)c(OC)cc3o2)cc1OC` [SINENSETIN] reads greater than 100 µM; that for `COc1cccc2oc(-c3ccc(O)cc3C)cc(=O)c12`, 98.3 µM.
Consider `O=C1NC(=S)NC(=O)C1=Cc1cn(Cc2ccc3ccccc3c2)c2ccc(Cl)cc12`, for which, at DNA polymerase eta [5], the IC50 was 8 µM.
As to `O=c1cc(Cc2ccc(O)c(O)c2)oc2cccc(O)c12`, at DNA polymerase eta [1], the IC50 was greater than 100 µM.
Still for that read-out and setting: with `O=c1c(OCCO)c(-c2ccc(O)c(O)c2)oc2cc(O)cc(O)c12` the figure was 87.5 µM.
Consider `O=C(O)C1=CC(=C(c2ccc(O)c(C(=O)O)c2)c2ccc(O)c(C(=O)O)c2)C=CC1=O` [AURINTRICARBOXYLIC ACID], for which the midpoint of inhibition in data set [6], the IC50, lay at 0.4 µM.
Turning to `O=c1cc(-c2ccccc2)oc2cc(O)c(O)c(O)c12` [BAICALEIN], in data set [2], the half-life at 2 µM is greater than 2 h. Moreover, the solubility kinetic at 24 h, 250 µM in data set [3] is 12 µM (≈ 3.24 µg/mL). In [4], the half-life at 4.6 µM is 0.683 h. Further, on DNA polymerase eta [1], the IC50 came out at 11.8 µM.
For orientation: inhibition means how much of the control response was suppressed. As for `Cc1cc(=O)c2c(CC(=O)CC(O)CC(=O)O)cccc2o1` (racemic), the inhibition turned out to be 100% in data set [7] and 22.8% in [8].
For the compound `COc1cccc2oc(-c3ccccc3C)cc(=O)c12`, the IC50 on DNA polymerase eta [1] is greater than 100 µM.
As to `O=c1cc(-c2ccc(O)c(O)c2)oc2cc(F)cc(O)c12`, in data set [2], the half-life at 2 µM was greater than 2 h. In addition, in data set [3], the solubility kinetic at 24 h, 250 µM was less than 1 µM. The half-life at 4.6 µM in data set [4] is greater than 1 h. Also, the IC50 at DNA polymerase eta [1] came out at 13.8 µM.
In the case of `O=c1cc(-c2ccccc2)oc2cc(O)cc(O)c12` [CHRYSIN], the IC50 at DNA polymerase eta [1] was 14.8 µM.
Regarding `O=C1NC(=S)NC(=O)C1=Cc1cn(C(=O)c2ccc3ccccc3c2)c2ccc(Cl)cc12`, the IC50 at DNA polymerase eta [9] turned out to be 16 µM.
Consider `O=c1cc(/C=C/c2ccc(O)c(O)c2)oc2cccc(O)c12`, for which the IC50 at DNA polymerase eta [1] was greater than 100 µM.
Regarding `O=c1cc(-c2ccc(O)cc2)oc2cc(O)cc(O)c12` [APIGENIN], the half-life at 2 µM in data set [2] was greater than 2 h. Besides, the solubility kinetic at 24 h, 250 µM in [3] turned out to be 13 µM (≈ 3.51 µg/mL). In data set [4], the half-life at 4.6 µM was determined as 0.133 h. Besides, the IC50 on DNA polymerase eta [1] came to 22.2 µM.
`O=c1cc(-c2ccc(O)c(O)c2)oc2ccccc12`: the IC50 at DNA polymerase eta [1] was 30.5 µM.
With `O=c1cc(-c2cccc(O)c2)oc2cc(O)cc(O)c12`, the half-life at 2 µM in data set [2] was greater than 2 h. In addition, in [3], the solubility kinetic at 24 h, 250 µM stood at 6 µM (≈ 1.62 µg/mL). The half-life at 4.6 µM in data set [4] was found to be 0.183 h. For the same compound, on DNA polymerase eta [1], the IC50 was determined as 5 µM.
Turning to `O=c1cc(-c2ccc(O)c(O)c2)oc2cc(O)cc(O)c12` [LUTEOLIN], the inhibition in [7] turned out to be 95%; in data set [8], 49.9%. Further, the half-life at 2 µM in data set [2] is greater than 2 h. For the same compound, the solubility kinetic at 24 h, 250 µM in data set [3] was found to be 21 µM (≈ 6.01 µg/mL). Besides, the half-life at 4.6 µM in [4] is greater than 1 h. The IC50 at DNA polymerase eta [1] stood at 12.7 µM.
Take `COc1cccc2oc(-c3ccccc3C(F)(F)F)cc(=O)c12`: the IC50 at DNA polymerase eta [1] was greater than 100 µM.
For `O=c1cc(CCc2ccc(O)c(O)c2)oc2cccc(O)c12`, the IC50 at DNA polymerase eta [1] was greater than 100 µM.
Still for that read-out and setting: with `O=c1cc(-c2ccc3c(c2)OC(F)(F)O3)oc2cc(O)cc(O)c12` the figure was greater than 100 µM.
For `O=C(O)CCc1cc(=O)c2c(O)cc(O)cc2o1`, the IC50 at DNA polymerase eta [1] was greater than 100 µM.
On the same count and under the same terms, the result for `O=c1cc(-c2ccc(O)c(O)c2)oc2cc(O)ccc12` reads 27 µM; that for `CCCCOc1c(-c2ccc(O)c(O)c2)oc2cc(O)cc(O)c2c1=O`, 62.4 µM; that for `CCOc1c(-c2ccc(O)c(O)c2)oc2cc(O)cc(O)c2c1=O`, 33.5 µM.
Still for that read-out and setting: with `COc1cccc2oc(-c3ccccc3F)cc(=O)c12` the figure was greater than 100 µM.
On the same count and under the same terms, with `O=c1c(-c2ccc(O)cc2)coc2cc(O)cc(O)c12` [GENISTEIN] the figure was 92.4 µM; with `O=C(Nc1ccc(O)c(O)c1)c1cc(=O)c2c(O)cccc2o1`, 26.5 µM.
`O=c1c(O)c(-c2ccc(O)c(O)c2)oc2cc(O)cc(O)c12` [QUERCETIN]: the half-life at 2 µM in [2] is 0.117 h. The solubility kinetic at 24 h, 250 µM in [3] was determined as 16 µM (≈ 4.84 µg/mL). For the same compound, the half-life at 4.6 µM in [4] is greater than 1 h. For the same compound, the IC50 at DNA polymerase eta [1] amounted to 15.8 µM.
For `O=C(O)c1cc(-c2cc(=O)c3c(O)cc(O)cc3o2)ccc1O`, on DNA polymerase eta [1], the IC50 was found to be 7.7 µM.
With `O=c1cc(-c2ccc(O)c(O)c2)oc2cccc(O)c12`, in data set [2], the half-life at 2 µM was greater than 2 h. For the same compound, the solubility kinetic at 24 h, 250 µM in [3] was 9 µM (≈ 2.43 µg/mL). Also, in [4], the half-life at 4.6 µM was greater than 1 h. For the same compound, the IC50 at DNA polymerase eta [1] amounted to 8.7 µM.
`CCCCc1c(-c2ccc(O)c(O)c2)oc2cc(O)cc(O)c2c1=O`: on DNA polymerase eta [1], the IC50 was greater than 100 µM.
